The text below walks through data of US12686689B2, “HPK1 inhibitor, preparation method therefor and use thereof” (WIGEN BIOMEDICINE TECHNOLOGY (SHANGHAI) CO., LTD., priority 2020, dated 2026).

Molecules are shown by their SMILES.

The assay addresses HPK1 (Homo sapiens, UniProt Q92918). Kind of assay: Inhibitory effect against enzyme activity of HPK1 (lantha Screen, PKC substrate). The following applies: class symbols defined as IC50 ranges, read-out: Inhibition rate (%). In kind it is biochemical. As for the experimental part:
Example 130: Assay of Inhibitory Effect of Compound Against Enzyme Activity of HPK1
The inhibitory effect of the compound against the enzyme activity of HPK1 was determined by using a lantha Screen method with PKC as a substrate. The process comprises the following specific steps: the HPK1 protein was incubated with the serially-diluted compound at 28° C. for 10 min followed by addition of fluoroescein-labeled PKC substrate and ATP to react for 90 min. After termination of the reaction, a Terbium-labeled antibody against phosphorylated PKC was added and incubated for 60 min. The energy transfer of Teribium and fluoroscein was monitored by detecting luminescence at 520 nm and 450 nm to quantify PKC as the level of phosphorylation of […]. Inhibition % and IC50 of the compound were calculated compared to the control group.

HPK1, sequence (Q92918 whole entry): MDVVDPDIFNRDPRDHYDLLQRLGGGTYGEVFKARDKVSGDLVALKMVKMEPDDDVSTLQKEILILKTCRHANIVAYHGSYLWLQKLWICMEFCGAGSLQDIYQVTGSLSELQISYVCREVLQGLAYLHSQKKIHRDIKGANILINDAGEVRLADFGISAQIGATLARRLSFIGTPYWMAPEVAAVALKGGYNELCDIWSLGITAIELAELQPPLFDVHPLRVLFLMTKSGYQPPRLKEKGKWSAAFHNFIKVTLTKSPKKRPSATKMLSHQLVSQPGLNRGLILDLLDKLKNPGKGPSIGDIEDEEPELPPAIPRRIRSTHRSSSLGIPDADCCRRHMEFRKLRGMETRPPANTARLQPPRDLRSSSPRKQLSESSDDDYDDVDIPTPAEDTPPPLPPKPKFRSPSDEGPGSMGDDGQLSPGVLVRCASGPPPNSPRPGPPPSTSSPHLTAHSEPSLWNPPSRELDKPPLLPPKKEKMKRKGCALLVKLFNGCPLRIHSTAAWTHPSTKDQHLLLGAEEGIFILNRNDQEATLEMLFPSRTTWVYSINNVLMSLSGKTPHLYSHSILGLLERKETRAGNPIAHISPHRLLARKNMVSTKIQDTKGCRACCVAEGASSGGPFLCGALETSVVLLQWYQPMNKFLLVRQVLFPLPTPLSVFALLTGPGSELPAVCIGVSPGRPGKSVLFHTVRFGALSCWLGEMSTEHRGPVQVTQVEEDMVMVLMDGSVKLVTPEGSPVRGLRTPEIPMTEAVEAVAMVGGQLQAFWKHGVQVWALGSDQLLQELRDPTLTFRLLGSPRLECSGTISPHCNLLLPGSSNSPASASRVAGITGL

With `CN1CCN2c3ccc(-c4n[nH]c5cc(C#N)c(-c6ccccc6F)cc45)cc3OCC2C1` (stereo not shown) [Compound 1, 5-(2-fluorophenyl)-3-(3-methyl-1,2,3,4,4a,5-hexahydrobenzo[b]pyrazino[1,2-d][1,4]oxazin-8-yl)-1H-indazole-6-carbonitrile], the IC50 is not above 10 nM.

In the case of `CN1CCN2c3ccc(-c4n[nH]c5cc(C#N)c(-c6ccccc6F)cc45)cc3OC[C@@H]2C1` [Compound 1-a], the IC50 was not above 10 nM.

`CN1CCN2c3ccc(-c4n[nH]c5cc(C#N)c(-c6ccccc6F)cc45)cc3OC[C@H]2C1` [Compound 1-b]: the IC50 is not above 10 nM.

Consider `COc1ccccc1-c1cc2c(-c3ccc4c(c3)OCC3CN(C)CCN43)n[nH]c2cc1C#N` (stereo not shown) [Compound 2], for which the IC50 is not above 10 nM.

As for `Cc1ccccc1-c1cc2c(-c3ccc4c(c3)OCC3CN(C)CCN43)n[nH]c2cc1C#N` (stereo not shown) [Compound 3], the IC50 was in the range of 10 to 100 nM.

For `CN1CCN2c3ccc(-c4n[nH]c5cc(C#N)c(-c6c(F)cccc6F)cc45)cc3OCC2C1` (stereo not shown) [Compound 4], the IC50 lay within 10 to 100 nM.

Turning to `Cc1cccc(F)c1-c1cc2c(-c3ccc4c(c3)OCC3CN(C)CCN43)n[nH]c2cc1C#N` (stereo not shown) [Compound 5], the IC50 lay in the range of 10 to 100 nM.

With `CN1CCN2c3ccc(-c4n[nH]c5cc(C#N)c(-c6cccc(F)c6F)cc45)cc3OCC2C1` (stereo not shown) [Compound 7], the IC50 was not below 100 nM.

Consider `CN1CCN2c3ccc(-c4n[nH]c5cc(C#N)c(-c6cccc(C#N)c6F)cc45)cc3OCC2C1` (stereo not shown) [Compound 8], for which the IC50 was not above 10 nM.

Take `CN1CCN2c3ccc(-c4n[nH]c5cc(C#N)c(-c6cccc(C(N)=O)c6F)cc45)cc3OCC2C1` (stereo not shown) [Compound 9]: the IC50 was not above 10 nM.

Regarding `CN1CCN2c3ccc(-c4n[nH]c5cc(C#N)c(-c6cccc(C(=O)NCc7ccncc7)c6F)cc45)cc3OCC2C1` (stereo not shown) [Compound 10], the IC50 is not above 10 nM.

On to `CN1CCN2c3ccc(-c4n[nH]c5cc(C#N)c(-c6cccc(NS(C)(=O)=O)c6F)cc45)cc3OCC2C1` (stereo not shown) [Compound 11], for which the IC50 fell in the range of 10 to 100 nM.

For the compound `CN1CCN2c3ccc(-c4n[nH]c5cc(C#N)c(-c6cccc(P(C)(C)=O)c6F)cc45)cc3OCC2C1` (stereo not shown) [Compound 12], the IC50 was not above 10 nM.

For `CN1CCN2c3ccc(-c4n[nH]c5cc(C#N)c(-c6cccc(S(C)(=O)=O)c6F)cc45)cc3OCC2C1` (stereo not shown) [Compound 13], the IC50 is not below 100 nM.

`CNS(=O)(=O)c1cccc(-c2cc3c(-c4ccc5c(c4)OCC4CN(C)CCN54)n[nH]c3cc2C#N)c1F` (stereo not shown) [Compound 14]: the IC50 is not above 10 nM.

`Cc1ccc(F)c(F)c1-c1cc2c(-c3ccc4c(c3)OCC3CN(C)CCN43)n[nH]c2cc1C#N` (stereo not shown) [Compound 15]: the IC50 was not above 10 nM.

Consider `CNCc1cc(C)c(-c2cc3c(-c4ccc5c(c4)OCC4CN(C)CCN54)n[nH]c3cc2C#N)c(F)c1` (stereo not shown) [Compound 17], for which the IC50 was not above 10 nM.

In the case of `CNCc1cc(F)c(-c2cc3c(-c4ccc5c(c4)OCC4CN(C)CCN54)n[nH]c3cc2C#N)c(C(F)(F)F)c1` (stereo not shown) [Compound 19], the IC50 is not above 10 nM.

With `CNCc1cc(F)c(-c2cc3c(-c4ccc5c(c4)OCC4CN(C)CCN54)n[nH]c3cc2C#N)c(OC)c1` (stereo not shown) [Compound 20], the IC50 was not above 10 nM.

With `CCNCc1cc(F)c(-c2cc3c(-c4ccc5c(c4)OCC4CN(C)CCN54)n[nH]c3cc2C#N)c(F)c1` (stereo not shown) [Compound 21], the IC50 is not above 10 nM.

In the case of `CN1CCN2c3ccc(-c4n[nH]c5cc(C#N)c(-c6c(F)cc(C7CCCN7)cc6F)cc45)cc3OCC2C1` (stereo not shown) [Compound 22], the IC50 is not above 10 nM.

For the compound `CN1CCN2c3ccc(-c4n[nH]c5cc(C#N)c(-c6c(F)cc(C7CCCCN7)cc6F)cc45)cc3OCC2C1` (stereo not shown) [Compound 23], the IC50 was not above 10 nM.

Consider `CN1CCN2c3ccc(-c4n[nH]c5cc(C#N)c(-c6c(F)cc(CC#N)cc6F)cc45)cc3OCC2C1` (stereo not shown) [Compound 24], for which the IC50 is not above 10 nM.

As for `COCc1cc(F)c(-c2cc3c(-c4ccc5c(c4)OCC4CN(C)CCN54)n[nH]c3cc2C#N)c(F)c1` (stereo not shown) [Compound 25], the IC50 is not above 10 nM.

Take `CN1CCN2c3ccc(-c4n[nH]c5cc(C#N)c(-c6c(F)cc(C7CCCC7N)cc6F)cc45)cc3OCC2C1` (stereo not shown) [Compound 26]: the IC50 was not above 10 nM.

On to `CN(C)CC(=O)Nc1cc(F)c(-c2cc3c(-c4ccc5c(c4)OCC4CN(C)CCN54)n[nH]c3cc2C#N)c(F)c1` (stereo not shown) [Compound 27], for which the IC50 was not above 10 nM.

With `CN1CCN2c3ccc(-c4n[nH]c5cc(C#N)c(-c6c(F)cc(NC(=O)CN7CCCC7)cc6F)cc45)cc3OCC2C1` (stereo not shown) [Compound 28], the IC50 is not above 10 nM.

With `CN1CCN2c3ccc(-c4n[nH]c5cc(C#N)c(-c6c(F)cc(NC(=O)CN7CC8(COC8)C7)cc6F)cc45)cc3OCC2C1` (stereo not shown) [Compound 29], the IC50 is not above 10 nM.

Consider `CN1CCN2c3ccc(-c4n[nH]c5cc(C#N)c(-c6c(F)cc(NC(=O)CC#N)cc6F)cc45)cc3OCC2C1` (stereo not shown) [Compound 30], for which the IC50 was not above 10 nM.

For the compound `CN1CCN2c3ccc(-c4n[nH]c5cc(C#N)c(-c6c(F)cc(NC(=O)Cc7cccnc7)cc6F)cc45)cc3OCC2C1` (stereo not shown) [Compound 31], the IC50 lay within 10 to 100 nM.

With `CN1CCN2c3ccc(-c4n[nH]c5cc(C#N)c(-c6c(F)cc(OCc7ccncc7)cc6F)cc45)cc3OCC2C1` (stereo not shown) [Compound 32], the IC50 is not above 10 nM.

`CN1CCC(Oc2cc(F)c(-c3cc4c(-c5ccc6c(c5)OCC5CN(C)CCN65)n[nH]c4cc3C#N)c(F)c2)CC1` (stereo not shown) [Compound 33]: the IC50 is not above 10 nM.

In the case of `CN1CCN2c3ccc(-c4n[nH]c5cc(C#N)c(-c6c(F)cc(OC(=O)N(C)C)cc6F)cc45)cc3OCC2C1` (stereo not shown) [Compound 34], the IC50 is 10 to 100 nM.

As to `CN1CCN2c3ccc(-c4n[nH]c5cc(C#N)c(-c6c(F)cc(C(=O)N7CC(O)C7)cc6F)cc45)cc3OCC2C1` (stereo not shown) [Compound 36], the IC50 is not above 10 nM.

Regarding `CN1CCN2c3ccc(-c4n[nH]c5cc(C#N)c(-c6c(F)ccc7c6CCNC7)cc45)cc3OCC2C1` (stereo not shown) [Compound 37], the IC50 was not above 10 nM.

As to `CN1CCN2c3ccc(-c4n[nH]c5cc(C#N)c(-c6c(F)ccc7c6CCCC7N)cc45)cc3OCC2C1` (stereo not shown) [Compound 38], the IC50 was not above 10 nM.

On to `CN1CCN2c3ccc(-c4n[nH]c5cc(C#N)c(-c6c(F)cc7c(c6F)CC(N)CC7)cc45)cc3OCC2C1` (stereo not shown) [Compound 39], for which the IC50 is not above 10 nM.

Take `CN1CCN2c3ccc(-c4n[nH]c5cc(C#N)c(-c6ccc(-c7ccccn7)cc6F)cc45)cc3OCC2C1` (stereo not shown) [Compound 40]: the IC50 was 10 to 100 nM.

For the compound `CN1CCN2c3ccc(-c4n[nH]c5cc(C#N)c(-c6cccnc6)cc45)cc3OCC2C1` (stereo not shown) [Compound 41], the IC50 was not above 10 nM.

In the case of `CN1CCN2c3ccc(-c4n[nH]c5cc(C#N)c(-c6ncccc6F)cc45)cc3OCC2C1` (stereo not shown) [Compound 42], the IC50 was not above 10 nM.

`COc1ccncc1-c1cc2c(-c3ccc4c(c3)OCC3CN(C)CCN43)n[nH]c2cc1C#N` (stereo not shown) [Compound 44]: the IC50 was not above 10 nM.

Take `Cc1cncc(-c2cc3c(-c4ccc5c(c4)OCC4CN(C)CCN54)n[nH]c3cc2C#N)c1` (stereo not shown) [Compound 45]: the IC50 was not above 10 nM.

With `CNC(=O)c1cncc(-c2cc3c(-c4ccc5c(c4)OCC4CN(C)CCN54)n[nH]c3cc2C#N)c1` (stereo not shown) [Compound 46], the IC50 is not above 10 nM.

As for `Cc1n[nH]cc1-c1cc2c(-c3ccc4c(c3)OCC3CN(C)CCN43)n[nH]c2cc1C#N` (stereo not shown) [Compound 47], the IC50 is not above 10 nM.

`CN1CCN2c3ccc(-c4n[nH]c5cc(C#N)c(-c6cncnc6)cc45)cc3OCC2C1` (stereo not shown) [Compound 48]: the IC50 is not above 10 nM.

For the compound `CN1CCN2c3ccc(-c4n[nH]c5cc(C#N)c(-c6cnccn6)cc45)cc3OCC2C1` (stereo not shown) [Compound 49], the IC50 was not above 10 nM.

For the compound `CN1CCN2c3ccc(-c4n[nH]c5cc(C#N)c(-c6cccc7[nH]ncc67)cc45)cc3OCC2C1` (stereo not shown) [Compound 50], the IC50 is not above 10 nM.

As to `CN1CCN2c3ccc(-c4n[nH]c5cc(C#N)c(-c6cnc7cnn(C)c7c6)cc45)cc3OCC2C1` (stereo not shown) [Compound 51], the IC50 was not above 10 nM.

As to `CN1CCN2c3ccc(-c4n[nH]c5cc(C#N)c(-c6cnc7c(c6)ncn7C)cc45)cc3OCC2C1` (stereo not shown) [Compound 52], the IC50 is not above 10 nM.

Consider `CN1CCN2c3ccc(-c4n[nH]c5cc(C#N)c(-c6cnc7nccnc7c6)cc45)cc3OCC2C1` (stereo not shown) [Compound 53], for which the IC50 is not above 10 nM.

On to `CN1CCN2c3ccc(-c4n[nH]c5cc(C#N)c(-c6cncc7ccccc67)cc45)cc3OCC2C1` (stereo not shown) [Compound 54], for which the IC50 is 10 to 100 nM.

With `CN1CCN2c3ccc(-c4n[nH]c5cc(C#N)c(-c6cccn7ccnc67)cc45)cc3OCC2C1` (stereo not shown) [Compound 55], the IC50 was not above 10 nM.

Take `CN1CCN2c3ccc(-c4n[nH]c5cc(C#N)c(-c6cccn7cnnc67)cc45)cc3OCC2C1` (stereo not shown) [Compound 56]: the IC50 was not above 10 nM.

`CN1CCN2c3ccc(-c4n[nH]c5cc(C#N)c(-c6cccn7ncnc67)cc45)cc3OCC2C1` (stereo not shown) [Compound 57]: the IC50 is not above 10 nM.

In the case of `CN1CCN2c3ccc(-c4n[nH]c5cc(C#N)c(-c6cnc7ccnn7c6)cc45)cc3OCC2C1` (stereo not shown) [Compound 58], the IC50 was not above 10 nM.

As for `CN1CCN2c3ccc(-c4n[nH]c5cc(C#N)c(-c6ccc7nccn7c6)cc45)cc3OCC2C1` (stereo not shown) [Compound 59], the IC50 was not above 10 nM.

With `CN1CCN2c3ccc(-c4n[nH]c5cc(C#N)c(-c6ccn7ncnc7c6)cc45)cc3OCC2C1` (stereo not shown) [Compound 60], the IC50 is not above 10 nM.

Take `CN1CCN2c3ccc(-c4n[nH]c5cc(C#N)c(-c6ccn7cnnc7c6)cc45)cc3OCC2C1` (stereo not shown) [Compound 61]: the IC50 was not above 10 nM.

As to `CN1CCN2c3ccc(-c4n[nH]c5cc(C#N)c(-c6cnn7ccccc67)cc45)cc3OCC2C1` (stereo not shown) [Compound 62], the IC50 was 10 to 100 nM.

Turning to `CN1CCN2c3ccc(-c4n[nH]c5cc(C#N)c(-c6cnn7cccnc67)cc45)cc3OCC2C1` (stereo not shown) [Compound 63], the IC50 was not above 10 nM.

With `COc1cccc(F)c1-c1cc2c(-c3ccc4c(c3)OCC3CN(C)CCN43)n[nH]c2cn1` (stereo not shown) [Compound 64], the IC50 is not above 10 nM.
